Several values for one entry are separate records, joined by “and”; a condition that tells them apart may be missing. Equal values may be shown once. Read-outs that look alike come from different tables or passages of the source.
How the values were obtained:
[1] = cited from earlier work
[2] = test system: metalaxyl-sensitive strain of Plasmopara viticola; assay: Foliar spray on vine plantlets infected with Plasmopara viticola (two-leaf and three-leaf stage sprayings); assay type: in vivo
Procedure: Vine plantlets cv. "Gutedel" are grown under greenhouse conditions using one plant per pot (.O slashed.=6 cm) and sprayed with a spray broth prepared from an emulsion concentrate, either in the two-leaf stage or in the three-leaf stage. The following concentrations of active ingredient are used per batch of 4 plants: 200; 60; 20; 6; 2; 0.6; 0.2; 0.06 mg of a.i./liter. This dilution series is prepared in demineralized water immediately prior to application as a foliar spray. To exclude a gas-phase effect of the a.i. in the vicinity, all plants are separated from each other on the side using translucent plastic foils and kept in the dark for one day at 20°-22° C. and a relative humidity of approximately 100%.
Then, the entire leaf surface area of the plants is uniformly sprayed to drip point with a freshly prepared sporangia suspension (120 000/ml) of a metalaxyl-sensitive strain of Plasmopara viticola. The plants are then kept for 7 days under a 16 hour photoperiod with artificial daylight at 20°-22° C. and a relative humidity of approximately 100%. This is followed by evaluation of the infestation, separating three-leaf and two-leaf stage sprayings. The tables show in each case the average of 4 parallel sprayings.

[3] = Degradation behaviour in sandy soil under laboratory conditions; parameters: degradation equation Ct, rate constant in exponent: unit: 1/day; settings: sand; for degradation equation Ct, pre-exponential factor / degradation equation Ct, rate constant in exponent: first-order fit; for degradation equation Ct, rate constant in exponent: e^(-k*t); for DT-50 (50% degradation) / DT-90 (90% degradation): from degradation curve FIG. 2
Procedure: Degradation Behaviour of Racemic Metalaxyl and R-metalaxyl in Sandy Soil
Two groups of 16 samples each of biologically active soil (sandy soil; loam: 5.1%; silt: 11.4%; sand: 83.5%; organic carbon: 1.6%; pH 4; biomass: 51 mg microbial carbon/100 g soil; origin: Collombey, Valais, Switzerland)are treated in parallel with racemic metalaxyl or R-metalaxyl, respectively, in each case in acetonic solution. The rate of application is 0.5 mg/kg of soil sample, which corresponds to a rate of application of 0.5 kg/hectare. The results are evaluated in duplicate after 0, 1, 3, 7, 9, 15, 21 and 29 days.

[4] = Degradation behaviour in moderately heavy soil (silt/loam) under laboratory conditions; settings: for degradation equation Ct, pre-exponential factor: first-order fit; for DT-50 (50% degradation) / DT-90 (90% degradation): from degradation curve FIG. 1
Procedure: Degradation Behaviour of Racemic Metalaxyl and R-metalaxyl in Moderately Heavy Soil
Two groups of 8 samples each of biologically active soil (silt/loam; loam: 13.9%; silt: 54.3%; sand: 31.8%; organic carbon: 2.1%; pH 7.3; biomass: 65.1 mg microbial carbon per 100 g soil; origin: Les Evouettes, Valais, Switzerland) are treated in parallel with racemic metalaxyl or R-metalaxyl, respectively, in each case in acetonic solution. The rate of application is 0.5 mg/kg of soil sample, which corresponds to a rate of application of 0.5 kg/hectare. The results are evaluated in duplicate after 0, 7, 14 and 21 days.

Phytophthora palmivora = settings: S-enantiomer versus R-enantiomer of metalaxyl; cited from earlier work
[5] = three-leaf stage, 0.06 mg of a.i./liter, untreated control 92
[6] = three-leaf stage, 0.2 mg of a.i./liter, untreated control 92
[7] = three-leaf stage, 0.6 mg of a.i./liter, untreated control 92
[8] = three-leaf stage, 2 mg of a.i./liter, untreated control 92
[9] = three-leaf stage, 6 mg of a.i./liter, untreated control 92
[10] = three-leaf stage, 20 mg of a.i./liter, untreated control 92
[11] = three-leaf stage, 60 mg of a.i./liter, untreated control 92
[12] = three-leaf stage, 200 mg of a.i./liter, untreated control 92
[13] = two-leaf stage, 0.06 mg of a.i./liter, untreated control 96
[14] = two-leaf stage, 0.2 mg of a.i./liter, untreated control 96
[15] = two-leaf stage, 0.6 mg of a.i./liter, untreated control 96
[16] = two-leaf stage, 2 mg of a.i./liter, untreated control 96
[17] = two-leaf stage, 6 mg of a.i./liter, untreated control 96
[18] = two-leaf stage, 20 mg of a.i./liter, untreated control 96
[19] = two-leaf stage, 60 mg of a.i./liter, untreated control 96
[20] = two-leaf stage, 200 mg of a.i./liter, untreated control 96
[21] = day 1, mean of duplicate, 1440 min
[22] = day 3, mean of duplicate, 4320 min
[23] = day 7, mean of duplicate, 10080 min
[24] = day 7, single sample, 10080 min
[25] = day 9, mean of duplicate, 12960 min
[26] = day 9, single sample, 12960 min
[27] = day 15, mean of duplicate, 21600 min
[28] = day 15, single sample, 21600 min
[29] = day 21, mean of duplicate, 30240 min
[30] = day 21, single sample, 30240 min
[31] = day 29, mean of duplicate, 41760 min
[32] = day 29, single sample, 41760 min
[33] = day 14, mean of duplicate, 20160 min
[34] = day 14, single sample, 20160 min

SMILES: COC(=O)C(C)N(C(=O)Cc1ccccc1)c1c(C)cccc1C (racemic) [Benalaxyl, N-(2,6-dimethylphenyl)-N-(phenylacetyl)-DL-alanine methyl ester]
- DT-50 (hydrolytic half-life) ([1]; pH9.25): 86 days

SMILES: COC(=O)C(C)N(C(=O)c1ccco1)c1c(C)cccc1C (racemic) [Furalaxyl, N-(2,6-dimethylphenyl)-N-(2-furanylcarbonyl)-DL-alanine methyl ester]
- DT-50 (hydrolytic half-life) ([1]; 20° C., pH1): > 200 days
- DT-50 (hydrolytic half-life) ([1]; 20° C., pH9): > 200 days

SMILES: COCC(=O)N(c1c(C)cccc1C)C(C)C(=O)OC (racemic) [racemic metalaxyl, N-(2,6-dimethylphenyl)-N-(methoxyacetyl)-DL-alanine methyl ester]
- Foliar infestation [2, 5]: 92%
- Foliar infestation [2, 6]: 90%
- Foliar infestation [2, 7]: 96%
- Foliar infestation [2, 8]: 80%
- activity ([2]; three-leaf stage, 6 mg of a.i./liter (or less)): virtually no activity
- Foliar infestation [2, 9]: 85%
- Foliar infestation [2, 10]: 27%
- activity ([2]; three-leaf stage, 20 mg/liter): a more clear-cut activity is only discernible
- Foliar infestation [2, 11]: 0%
- Foliar infestation [2, 12]: 0%
- Foliar infestation [2, 13]: 96%
- Foliar infestation [2, 14]: 97%
- Foliar infestation [2, 15]: 100%
- Foliar infestation [2, 16]: 87%
- Foliar infestation [2, 17]: 76%
- Foliar infestation [2, 18]: 38%
- Foliar infestation [2, 19]: 0%
- Foliar infestation [2, 20]: 0%
- effect for practical purposes ([2]; two-leaf stage, below 20 mg of a.i./liter): without effect for practical purposes
- action against foliar infestation ([2]; two-leaf stage, below 60 mg of a.i./liter): does not result in a clear-cut action against foliar infestation
- Rate of degradation (% of applied), mean ([3]; day 0, mean of duplicate): 97.78 % of applied
- Rate of degradation (% of applied) ([3]; day 0, single sample): 98.00 % of applied and 97.56 % of applied
- Rate of degradation (% of applied), mean [3, 21]: 87.82 % of applied
- Rate of degradation (% of applied) ([3]; day 1, single sample, 1440 min): 87.75 % of applied and 87.88 % of applied
- Rate of degradation (% of applied), mean [3, 22]: 80.01 % of applied
- Rate of degradation (% of applied) ([3]; day 3, single sample, 4320 min): 80.32 % of applied and 79.69 % of applied
- Rate of degradation (% of applied), mean [3, 23]: 65.01 % of applied
- Rate of degradation (% of applied) [3, 24]: 65.41 % of applied and 64.60 % of applied
- Rate of degradation (% of applied), mean [3, 25]: 56.26 % of applied
- Rate of degradation (% of applied) [3, 26]: 55.84 % of applied and 56.68 % of applied
- Rate of degradation (% of applied), mean [3, 27]: 42.54 % of applied
- Rate of degradation (% of applied) [3, 28]: 43.49 % of applied and 41.58 % of applied
- Rate of degradation (% of applied), mean [3, 29]: 31.99 % of applied
- Rate of degradation (% of applied) [3, 30]: 30.77 % of applied and 33.21 % of applied
- Rate of degradation (% of applied), mean [3, 31]: 28.49 % of applied
- Rate of degradation (% of applied) [3, 32]: 28.70 % of applied and 28.28 % of applied
- degradation equation Ct, pre-exponential factor [3]: 93.67
- degradation equation Ct, rate constant in exponent [3]: 0.05006
- DT-50 (50% degradation) [3]: 13.9 days
- DT-90 (90% degradation) [3]: 46.0 days
- Compound remaining in soil (% of applied) ([4]; day 0, mean of duplicate): 90.39 % of applied
- Compound remaining in soil (% of applied) ([4]; day 0, single sample): 90.41 % of applied and 90.36 % of applied
- Compound remaining in soil (% of applied) [4, 23]: 46.23 % of applied
- Compound remaining in soil (% of applied) [4, 24]: 47.28 % of applied and 45.17 % of applied
- Compound remaining in soil (% of applied) [4, 33]: 35.71 % of applied
- Compound remaining in soil (% of applied) [4, 34]: 35.88 % of applied and 35.54 % of applied
- Compound remaining in soil (% of applied) [4, 29]: 29.20 % of applied
- Compound remaining in soil (% of applied) [4, 30]: 29.34 % of applied and 29.06 % of applied
- degradation equation Ct, pre-exponential factor [4]: 86.66
- DT-50 (50% degradation) [4]: 10.8 days
- DT-90 (90% degradation) [4]: 35.7 days
- DT-50 (hydrolytic half-life) ([1]; 20° C., pH1): > 200 days
- DT-50 (hydrolytic half-life) ([1]; 20° C., pH9): 115 days

SMILES: COCC(=O)N(c1c(C)cccc1C)[C@H](C)C(=O)OC [R-metalaxyl]
- Foliar infestation [2, 5]: 93%
- Foliar infestation [2, 6]: 78%
- Foliar infestation [2, 7]: 0%
- Foliar infestation [2, 8]: 0%
- Foliar infestation [2, 9]: 0%
- Foliar infestation [2, 10]: 0%
- Foliar infestation [2, 11]: 0%
- Foliar infestation [2, 12]: 0%
- activity relative to racemic metalaxyl ([2]; three-leaf stage, up to 0.6 mg of a.i./liter): approximately 100 times
- Foliar infestation [2, 13]: 92%
- Foliar infestation [2, 14]: 97%
- Foliar infestation [2, 15]: 78%
- Foliar infestation [2, 16]: 4%
- Foliar infestation [2, 17]: 0%
- Foliar infestation [2, 18]: 0%
- Foliar infestation [2, 19]: 0%
- Foliar infestation [2, 20]: 0%
- activity relative to racemic metalaxyl ([2]; two-leaf stage, up to dilutions of 2 mg of a.i./liter): up to 30 times
- Rate of degradation (% of applied), mean ([3]; day 0, mean of duplicate): 100.02 % of applied
- Rate of degradation (% of applied) ([3]; day 0, single sample): 100.32 % of applied and 99.72 % of applied
- Rate of degradation (% of applied), mean [3, 21]: 89.64 % of applied
- Rate of degradation (% of applied) ([3]; day 1, single sample, 1440 min): 89.16 % of applied and 90.13 % of applied
- Rate of degradation (% of applied), mean [3, 22]: 75.48 % of applied
- Rate of degradation (% of applied) ([3]; day 3, single sample, 4320 min): 76.96 % of applied and 74.01 % of applied
- Rate of degradation (% of applied), mean [3, 23]: 52.59 % of applied
- Rate of degradation (% of applied) [3, 24]: 52.59 % of applied
- Rate of degradation (% of applied), mean [3, 25]: 46.84 % of applied
- Rate of degradation (% of applied) [3, 26]: 47.22 % of applied and 46.45 % of applied
- Rate of degradation (% of applied), mean [3, 27]: 27.33 % of applied
- Rate of degradation (% of applied) [3, 28]: 24.77 % of applied and 29.89 % of applied
- Rate of degradation (% of applied), mean [3, 29]: 17.09 % of applied
- Rate of degradation (% of applied) [3, 30]: 17.12 % of applied and 17.05 % of applied
- Rate of degradation (% of applied), mean [3, 31]: 8.72 % of applied
- Rate of degradation (% of applied) [3, 32]: 8.82 % of applied and 8.62 % of applied
- degradation equation Ct, pre-exponential factor [3]: 98.54
- degradation equation Ct, rate constant in exponent [3]: 0.08548
- DT-50 (50% degradation) [3]: 8.1 days
- DT-90 (90% degradation) [3]: 26.9 days
- Compound remaining in soil (% of applied) ([4]; day 0, mean of duplicate): 96.28 % of applied
- Compound remaining in soil (% of applied) ([4]; day 0, single sample): 93.61 % of applied and 98.94 % of applied
- Compound remaining in soil (% of applied) [4, 23]: 25.23 % of applied
- Compound remaining in soil (% of applied) [4, 24]: 24.74 % of applied and 25.7 % of applied
- Compound remaining in soil (% of applied) [4, 33]: 9.85 % of applied
- Compound remaining in soil (% of applied) [4, 34]: 9.07 % of applied and 10.62 % of applied
- Compound remaining in soil (% of applied) [4, 29]: 7.69 % of applied
- Compound remaining in soil (% of applied) [4, 30]: 7.57 % of applied and 7.82 % of applied
- degradation equation Ct, pre-exponential factor [4]: 95.9
- DT-50 (50% degradation) [4]: 3.9 days
- DT-90 (90% degradation) [4]: 13.0 days

SMILES: COCC(=O)N(c1c(C)cccc1C)[C@@H](C)C(=O)OC [S-enantiomer of metalaxyl]
- ED50 inhibitory value in nucleic acid synthesis relative to R-enantiomer (times more unfavorable) (Phytophthora palmivora): approximately fifty
